Tests used:
Experiment in all cases: relative viability (nuclei count vs DMSO), 5 days (fraction); higher = more cells survive
[1] = compound: COc1cc2ncn(-c3cc(OCc4ccccc4C(F)(F)F)c(C(N)=O)s3)c2cc1OC + Nc1ncn([C@H]2C[C@H](O)[C@@H](CO)O2)c(=O)n1 [Decitabine] (partner 2 µM)
Outline: (§1)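 Lung cancer cell lines were pin-tool dosed in 1536-well plates on the day after seeding, with either a lone drug or a fixed anchor-drug dose plus five library-drug doses (not always all listed) in √10 steps. Nuclei were counted on 4× images after 5 days. Relative viability is the ratio of treated-well to vehicle-well nuclei counts, with each value a median of duplicate plates.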

[2] = compound: COc1cc2ncn(-c3cc(OCc4ccccc4C(F)(F)F)c(C(N)=O)s3)c2cc1OC + CC(C)C[C@H](NC(=O)[C@H](Cc1ccccc1)NC(=O)c1cnccn1)B(O)O [Bortezomib] (partner 0.002 µM)
Outline: as §1

[3] = compound: COc1cc2ncn(-c3cc(OCc4ccccc4C(F)(F)F)c(C(N)=O)s3)c2cc1OC + Cc1cc(Nc2cc(N3CCN(C)CC3)nc(Sc3ccc(NC(=O)C4CC4)cc3)n2)n[nH]1 [Tozasertib] (partner 0.1 µM)
Outline: as §1

[4] = compound: COc1cc2ncn(-c3cc(OCc4ccccc4C(F)(F)F)c(C(N)=O)s3)c2cc1OC + NC(=O)Nc1cc(-c2cccc(F)c2)sc1C(=O)N[C@H]1CCCNC1 [AZD7762] (partner 0.2 µM)
Outline: as §1

Cell Line | relative viability ([1]; first compound 0.05 µM) | relative viability ([1]; first compound 0.1581 µM) | relative viability ([1]; first compound 0.5 µM) | relative viability ([1]; first compound 1.581 µM) | relative viability ([1]; first compound 5 µM) | relative viability ([2]; first compound 0.05 µM) | relative viability ([2]; first compound 0.1581 µM) | relative viability ([2]; first compound 0.5 µM) | relative viability ([2]; first compound 1.581 µM) | relative viability ([2]; first compound 5 µM) | relative viability ([3]; first compound 0.05 µM) | relative viability ([3]; first compound 0.1581 µM) | relative viability ([3]; first compound 0.5 µM) | relative viability ([3]; first compound 1.581 µM) | relative viability ([3]; first compound 5 µM) | relative viability ([4]; first compound 0.05 µM) | relative viability ([4]; first compound 0.1581 µM) | relative viability ([4]; first compound 0.5 µM) | relative viability ([4]; first compound 1.581 µM) | relative viability ([4]; first compound 5 µM)
NCI-H727 | 1.03 | 0.927 | 0.825 | 0.616 | 0.568 | 1.05 | 0.835 | 0.583 | 0.317 | 0.381 | 0.639 | 0.565 | 0.659 | 0.445 | 0.42 | 0.712 | 0.495 | 0.504 | 0.527 | 0.487
NCI-H1944 | 0.468 | 0.465 | 0.399 | 0.235 | 0.153 |  |  |  |  |  | 0.297 | 0.3 | 0.274 | 0.23 | 0.216 | 0.546 | 0.545 | 0.426 | 0.168 | 0.0968
UMC-11 | 0.309 | 0.595 | 0.265 | 0.253 | 0.251 | 0.634 | 0.596 | 0.119 | 0.131 | 0.0891 | 0.194 | 0.192 | 0.193 | 0.278 | 0.253 |  |  |  |  | 
COR-L 105 | 0.65 | 0.601 | 0.572 | 0.438 | 0.278 | 0.727 | 0.763 | 0.529 | 0.271 | 0.269 | 0.43 | 0.383 | 0.392 | 0.284 | 0.277 |  |  |  |  | 
EBC-1 |  |  |  |  |  | 0.454 | 0.439 | 0.208 | 0.139 | 0.159 |  |  |  |  |  |  |  |  |  | 
SW 1573 | 0.572 | 0.413 | 0.223 | 0.0976 | 0.126 | 0.975 | 1.2 | 0.867 | 0.157 | 0.565 | 0.154 | 0.179 | 0.192 | 0.174 | 0.139 |  |  |  |  | 
NCI-H1648 | 0.473 | 0.602 | 0.345 | 0.235 | 0.225 |  |  |  |  |  | 0.455 | 0.371 | 0.157 | 0.235 | 0.182 | 0.699 | 0.721 | 0.637 | 0.25 | 0.214
SW 900 | 0.482 | 0.447 | 0.425 | 0.354 | 0.256 |  |  |  |  |  | 0.685 | 0.661 | 0.277 | 0.253 | 0.244 | 0.575 | 0.538 | 0.565 | 0.279 | 0.156
NCI-H520 | 0.482 | 0.525 | 0.261 | 0.217 | 0.219 | 0.689 | 0.568 | 0.25 | 0.169 | 0.144 | 0.466 | 0.421 | 0.44 | 0.309 | 0.384 |  |  |  |  | 
NCI-H1792 | 0.503 | 0.65 | 0.411 | 0.0575 | 0.0384 | 0.958 | 0.91 | 0.88 | 0.423 | 0.223 |  |  |  |  |  | 0.61 | 0.71 | 0.472 | 0.0325 | 0.0304
NCI-H1793 | 0.244 | 0.469 | 0.408 | 0.223 | 0.137 |  |  |  |  |  | 0.34 | 0.296 | 0.292 | 0.239 | 0.191 | 0.463 | 0.407 | 0.301 | 0.148 | 0.103
NCI-H1563 |  |  |  |  |  | 0.985 | 1.01 | 0.807 | 0.676 | 0.592 |  |  |  |  |  |  |  |  |  | 
NCI-H1395 | 0.736 | 0.753 | 0.596 | 0.373 | 0.342 |  |  |  |  |  | 0.774 | 0.898 | 0.636 | 0.36 | 0.343 | 0.454 | 0.396 | 0.377 | 0.323 | 0.316
NCI-H1299 |  |  |  |  |  | 0.985 | 1.01 | 0.856 | 0.263 | 0.675 |  |  |  |  |  |  |  |  |  | 
NCI-H2228 |  |  |  |  |  | 1.01 | 0.849 | 0.208 | 0.182 | 0.18 | 0.291 | 0.258 | 0.133 | 0.178 | 0.201 |  |  |  |  | 
NCI-H2170 | 0.49 | 0.458 | 0.285 | 0.151 | 0.166 |  |  |  |  |  | 0.619 | 0.745 | 0.309 | 0.193 | 0.26 | 0.889 | 0.765 | 0.306 | 0.146 | 0.166
NCI-H522 | 0.574 | 0.628 | 0.54 | 0.618 | 0.36 |  |  |  |  |  | 0.481 | 0.549 | 0.58 | 0.536 | 0.454 | 1.01 | 0.769 | 0.766 | 0.461 | 0.417
A549 | 0.253 | 0.237 | 0.212 | 0.0645 | 0.0614 |  |  |  |  |  |  |  |  |  |  |  |  |  |  | 
SK-LU-1 | 0.663 | 0.487 | 0.494 | 0.317 | 0.304 | 1.35 | 1.14 | 0.745 | 0.292 | 0.256 | 0.306 | 0.301 | 0.285 | 0.225 | 0.206 |  |  |  |  | 
NCI-H358 | 0.228 | 0.179 | 0.219 | 0.115 | 0.138 |  |  |  |  |  | 0.0899 | 0.0976 | 0.118 | 0.0944 | 0.0929 | 0.541 | 0.493 | 0.419 | 0.193 | 0.14
CAL-12T |  |  |  |  |  | 0.944 | 0.821 | 0.608 | 0.242 | 0.199 | 0.316 | 0.26 | 0.208 | 0.164 | 0.2 | 0.555 | 0.598 | 0.514 | 0.239 | 0.199
COR-L23 | 0.435 | 0.394 | 0.305 | 0.145 | 0.159 | 0.937 | 0.933 | 0.689 | 0.126 | 0.111 | 0.213 | 0.189 | 0.13 | 0.143 | 0.139 |  |  |  |  | 
IA-LM |  |  |  |  |  | 0.747 | 0.479 | 0.0694 | 0.0622 | 0.0584 |  |  |  |  |  |  |  |  |  | 
NCI-H661 | 0.566 | 0.496 | 0.363 | 0.277 | 0.237 | 0.818 | 0.819 | 0.485 | 0.217 | 0.257 | 0.37 | 0.348 | 0.327 | 0.301 | 0.321 |  |  |  |  | 
NCI-H1650 | 0.396 | 0.382 | 0.329 | 0.219 | 0.138 | 0.222 | 0.184 | 0.185 | 0.175 | 0.172 | 0.304 | 0.324 | 0.221 | 0.225 | 0.154 |  |  |  |  | 
Calu-6 |  |  |  |  |  | 0.805 | 0.69 | 0.203 | 0.116 | 0.117 |  |  |  |  |  |  |  |  |  | 

Source: the supplement of paper PMC10307832
